Results: ChEMBL document CHEMBL2040789, “Optimization of the Central Core of Indolinone-Acetic Acid-Based CRTH2 (DP2) Receptor Antagonists” (ACS Med Chem Lett, 2011)
Values belong to the compound of their own block, whether it stands above or below them.

Assays:
[1] = biological target: T1, Prostaglandin D2 receptor 2 (Homo sapiens, UniProt Q9Y5Y4); assay: Displacement of [3H]PGD2 from human CRTH2 receptor expressed in CHO cells after 90 mins by scintillation proximity assay; format: cell-based
T1 sequence (Q9Y5Y4 whole entry): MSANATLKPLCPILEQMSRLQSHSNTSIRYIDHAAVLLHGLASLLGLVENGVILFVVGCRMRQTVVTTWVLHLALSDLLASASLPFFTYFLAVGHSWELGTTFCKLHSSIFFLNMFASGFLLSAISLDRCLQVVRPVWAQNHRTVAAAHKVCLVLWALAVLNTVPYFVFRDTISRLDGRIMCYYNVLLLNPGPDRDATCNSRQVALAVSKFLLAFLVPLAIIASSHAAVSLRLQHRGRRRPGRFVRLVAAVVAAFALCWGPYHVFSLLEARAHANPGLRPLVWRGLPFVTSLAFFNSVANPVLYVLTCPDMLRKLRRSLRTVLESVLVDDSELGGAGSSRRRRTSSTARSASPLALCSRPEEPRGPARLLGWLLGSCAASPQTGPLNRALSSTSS

[2] = Oral bioavailability in C57BL/6 mouse at 5 mg/kg; format: ADME, organism-based; conditions: in vivo
[3] = Clearance in C57BL/6 mouse at 1 mg/kg, iv and 5 mg/kg, po; format: ADME, organism-based; conditions: in vivo
[4] = Drug degradation at pH 7.4 after 24 hrs; format: physicochemical; conditions: buffer, read-out: Drug degradation
[5] = Drug degradation at pH 8 after 24 hrs; format: physicochemical; conditions: buffer, read-out: Drug degradation
[6] = Half life in human plasma; format: ADME, cell-free
[7] = Stability assessed as drug degradation by measuring 2,2'-(5-chloro-3-(2-fluorobenzylcarbamoyl)-2-oxoindoline-1,3-diyl)diacetic acid formation at pH > 6 after 24 hrs; format: physicochemical
[8] = Stability assessed as drug degradation by measuring 2-(5-chloro-3-(2-(2-fluorobenzylamino)-2-oxoethyl)-2-oxoindolin-1-yl)acetic acid formation at pH > 6 after 24 hrs; format: physicochemical
[9] = Apparent permeability of the compound in human Caco2 cells; format: ADME, cell-based; conditions: Caco-2

SMILES: CN1C(=O)N(Cc2csc(-c3ccccc3)n2)C(=O)C12C(=O)N(CC(=O)O)c1ccc(Cl)cc12 (stereo unspecified)
Ki [1]: 16 nM
bioavailability [2]: < 5%
clearance [3]: 60.5 mL/min/kg

SMILES: CN1C(=O)N(Cc2cc(F)ccc2F)C(=O)C12C(=O)N(CC(=O)O)c1ccc(Cl)cc12 (stereo unspecified)
Ki [1]: 390 nM

SMILES: O=C(O)CN1C(=O)[C@@]2(CC(=O)N(Cc3ccccc3F)C2=O)c2cc(Cl)ccc21
degraded at 24 h [4]: 25%
degraded at 24 h [5]: 50%
half-life [6]: 1 h
Stability [7]: Unstable
Stability [8]: Unstable

SMILES: CC(C)c1nc(CN2C(=O)N(C)C3(C2=O)C(=O)N(CC(=O)O)c2ccc(Cl)cc23)cs1 (stereo unspecified)
Ki [1]: 490 nM

SMILES: Cc1onc(-c2ccccc2)c1CN1C(=O)N(C)C2(C1=O)C(=O)N(CC(=O)O)c1ccc(Cl)cc12 (stereo unspecified)
Ki [1]: 110 nM

SMILES: CN1C(=O)N(Cc2cn(-c3ccccc3)nc2-c2ccccc2)C(=O)C12C(=O)N(CC(=O)O)c1ccc(Cl)cc12 (stereo unspecified)
Ki [1]: 96 nM

Next, values leading:

Ki [1]: 390 nM
SMILES: O=C(O)CN1C(=O)C2(NC(=O)N(Cc3ccccc3F)C2=O)c2cc(Cl)ccc21 (stereo unspecified)

Ki [1]: 7 nM
SMILES: Cc1onc(-c2ccccc2)c1CN1C(=O)NC2(C1=O)C(=O)N(CC(=O)O)c1ccc(Cl)cc12 (stereo unspecified)

Papp [9]: 26 ×10⁻⁶ cm/s
half-life [6]: 1 h
SMILES: O=C(O)CN1C(=O)[C@@]2(CC(=O)N(Cc3cc(Cl)ccc3F)C2=O)c2cc(Cl)ccc21
